Experimental findings from ChEMBL document CHEMBL1201862, “PubChem BioAssay data set” (2004) are described below.

Molecules are shown by their SMILES.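 Results reflect a 48-hour exposure of cells in 96-well plates to compound at five concentrations. GI50 marks 50% less growth.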 Calls of active or inactive are those of the source. Cut-off read from the data, not from the text of the source: active = GI50 up to about 1.1 µM and inactive = higher.

Test systems include SW-620; OVCAR-8; M14; SF-295; IGROV-1; SK-MEL-2; RXF 393; SN12C; SK-MEL-5; Hs-578T; NCI-H522; HCT-116; SNB-75; ACHN; LOX IMVI; PC-3; CAKI-1; NCI-H226; A498; CCRF-CEM.
Holding throughout (assay): DTP human tumour cell line panel, 48 h

Regarding `Cc1coc2c1C(=O)C(=O)c1c-2ccc2c1CCCC2(C)C` [TANSHINONE IIA], the GI50 is 2.42 µM (inactive) in the test on SW-620; 6.35 µM (inactive) in the test on OVCAR-8; 1.06 µM (active) in the test on M14; 2.48 µM (inactive) in the test with SF-295; 2.04 µM (inactive) in the test on IGROV-1; 2.28 µM (inactive) in the test with SK-MEL-2. The GI50 in the test on RXF 393 is 5.12 µM (inactive); in the test on SN12C, 3.7 µM (inactive); in the test with SK-MEL-5, 0.213 µM (active); with Hs-578T, 3.73 µM (inactive); with NCI-H522 it was 1.54 µM (inactive); in the test on HCT-116, 1.55 µM (inactive). The GI50 in the test on SNB-75 is 3.41 µM (inactive); in the test on ACHN, 7.33 µM (inactive); in the test on LOX IMVI, 0.342 µM (active); with PC-3 it was 2.34 µM (inactive); with CAKI-1, 1.95 µM (inactive); in the test with NCI-H226, 2.29 µM (inactive). The GI50 is 7.74 µM (inactive) in the test on A498 and 7.52 µM (inactive) with CCRF-CEM.
